# Molecular target: 5-hydroxytryptamine receptor 2A (Rattus norvegicus, UniProt P14842)
# Assay: Tested in vitro for its ability to inhibit [3H]ketanserin binding to 5-hydroxytryptamine 2A receptor in rat frontal cortex membranes
# Type: cell membranes, Membrane
# Sequence of 5-hydroxytryptamine receptor 2A (P14842 whole entry): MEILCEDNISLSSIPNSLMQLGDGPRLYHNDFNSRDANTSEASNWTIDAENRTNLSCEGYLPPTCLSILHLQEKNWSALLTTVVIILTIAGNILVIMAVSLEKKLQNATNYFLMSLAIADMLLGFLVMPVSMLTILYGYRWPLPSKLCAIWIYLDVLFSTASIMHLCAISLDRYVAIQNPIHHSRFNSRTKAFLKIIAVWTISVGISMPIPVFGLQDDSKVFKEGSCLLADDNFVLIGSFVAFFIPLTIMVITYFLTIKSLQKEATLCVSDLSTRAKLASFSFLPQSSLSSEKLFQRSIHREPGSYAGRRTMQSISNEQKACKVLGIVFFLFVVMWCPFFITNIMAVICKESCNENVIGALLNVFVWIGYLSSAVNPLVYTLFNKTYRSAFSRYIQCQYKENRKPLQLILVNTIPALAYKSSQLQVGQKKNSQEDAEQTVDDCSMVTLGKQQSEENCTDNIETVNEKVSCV
row,Compound,Ki [nM]
1,CCc1c(C)[nH]c2c1C(=O)CC(CN1CCC(C(=O)c3ccc(F)cc3)CC1)C2 (centres undefined),6.17
2,CCc1c(C)[nH]c2c1C(=O)CC(CN1CCC(c3noc4cc(F)ccc34)CC1)C2 (centres undefined),5.01
3,CCc1c(C)[nH]c2c1C(=O)CC(CN1CCN(CCCC(=O)c3ccc(F)cc3)CC1)C2 (centres undefined),398
4,CCc1c(C)[nH]c2c1C(=O)CC(CN1CCN(c3ccccc3OC)CC1)C2 (centres undefined),282

# From ChEMBL document CHEMBL1129897 (Bioorg Med Chem Lett, 1997)
